Three molecules from US20130252930A1 (BIOMARIN PHARMACEUTICAL INC., priority 2010, published 2013) can be followed below.

For assay [1], the target named is T1, Cyp21 enzyme (Human HEK 293-Cyp21 stable transfected cells) (Homo sapiens, UniProt P08686).
T1 construct: expressed in transfected cells
T1 sequence (P08686 1-495): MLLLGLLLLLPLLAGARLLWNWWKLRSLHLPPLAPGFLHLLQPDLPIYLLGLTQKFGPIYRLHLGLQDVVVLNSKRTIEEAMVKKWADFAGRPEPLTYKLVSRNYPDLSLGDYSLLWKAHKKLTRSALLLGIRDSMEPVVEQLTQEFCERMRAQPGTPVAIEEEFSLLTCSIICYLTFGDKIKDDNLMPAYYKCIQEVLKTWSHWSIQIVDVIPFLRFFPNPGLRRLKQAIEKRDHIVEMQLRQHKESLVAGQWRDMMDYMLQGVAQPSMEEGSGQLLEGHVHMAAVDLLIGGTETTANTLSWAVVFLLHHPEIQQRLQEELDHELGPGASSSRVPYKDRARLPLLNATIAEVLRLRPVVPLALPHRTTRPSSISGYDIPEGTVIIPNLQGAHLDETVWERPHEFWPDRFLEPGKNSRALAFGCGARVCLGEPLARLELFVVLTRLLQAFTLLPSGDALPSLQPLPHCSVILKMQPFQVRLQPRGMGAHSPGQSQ
Description: CYP21-HEK293 enzymatic assay (% inhibition at 100 nM) (Biological Example 10). It is filed as cell-based. To be noted: HEK 293-Cyp21 cells. Put shortly: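 Percent inhibition at 100 nM: DOC in conditioned medium was read by ELISA at 450 nm and quantified from a standard curve. Stably transfected human Cyp21 HEK293 cells were pretreated 5 h with compound or 1% methanol mock, then given 10 μM final progesterone for 20 h at 37 °C.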

The subject of assay [2] is rat Cyp11B enzyme (rat adrenal mitochondria). Nature of the assay: CYP11B enzymatic assay (% inhibition at 100 nM) (Biological Example 9). It is filed as biochemical. The conditions noted are these: for Biological Example No. 9: CYP11B percent inhibition at 100 nM: 100 nM compound, cortisol by ELISA. In short, it runs like this: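 Sprague Dawley rat adrenal mitochondria were incubated with compound at 100 nM, 0.5 mM NADPH and 0.1 μM 11-deoxycortisol (pH 7.4 Tris buffer) for 60 min at 37 °C. Cortisol was measured by ELISA and corrected by subtracting the no-NADPH background. % inhibition is relative to the no-compound reaction.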
Background: In an ELISA, binding on a coated surface is turned into a signal by an enzyme label.

The mark [3] stands for this setting: 100 nM compound, read-out: Biological Example No. 10: CYP21-HEK293 percent inhibition at 100 nM.

Read-outs that look alike come from different tables or passages of the source.

Take `C[C@]12CC[C@H]3[C@@H](CC=C4C[C@@H](O)CC[C@@]43C)C1=CC=C2c1cccnc1` [Compound 79, (3S,10R,13S)-10,13-dimethyl-17-(pyridin-3-yl)-2,3,4,7,8,9,10,11,12,13-decahydro-1H-cyclopenta[a]phenanthren-3-ol]: the inhibition at 0.1 µM in assay [1] (setting [3]) was below 30%. For the same molecule, the “Biological Example No. 9: CYP11B percent inhibition at 100 nM” value in assay [2] is “T (T means the compound had a percent inhibition of less than 32% when tested at 100 nM)”.
For `C[C@]12CC(O)C[C@@H]1CC[C@@H]1[C@@H]2CC[C@]2(C)C(n3ccnc3)=CC[C@@H]12` (stereo partly drawn) [Compound 109, (3aS,5aS)-6-(1H-imidazol-1-yl)-3a,5a-dimethyl-1,2,3,3a,3b,4,5,5a,8,8a,8b,9,10,10a-tetradecahydrodicyclopenta[a,f]naphthalen-2-ol], in that order: at least 30% and “U (U means the compound had a percent inhibition of greater than or equal to 32%)”.
Take `CC(=O)NC1CC[C@@]2(C)C(=CCC3C2CC[C@]2(C)C(n4ccnc4)=CCC32)C1` (stereo partly drawn) [Compound 237, N-((10R,13S)-17-(1H-imidazol-1-yl)-10,13-dimethyl-2,3,4,7,8,9,10,11,12,13,14,15-dodecahydro-1H-cyclopenta[a]phenanthren-3-yl)acetamide]: the inhibition at 0.1 µM in assay [1] (compound at 100 nM, read-out: CYP21-HEK293 enzymatic assay % inhibition at 100 nM (Biological Example No. 10)) is below 30%. In addition, the “CYP11B enzymatic assay % inhibition at 100 nM (Biological Example No. 9)” value in assay [2] (compound at 100 nM) is given as “U (U means the compound had a percent inhibition of greater than or equal to 32%)”.

Broadly, the inhibition is the percentage by which the read-out fell short of the control.
